Patent US20230321008A1, “INHIBITORS OF ACID SPHINGOMYELINASE FOR PREVENTING AND TREATING THE COVID-19 DISEASE” (priority 2020, published 2023)
“Also recorded” adds a separate entry of the source.

Key:
glia activation = conditions: dependent on glia activation; cited from earlier work
[1] = target: T1, acid sphingomyelinase (ASM) (Homo sapiens, UniProt P17405); conditions: cited from earlier work
T1 sequence (P17405 47-631): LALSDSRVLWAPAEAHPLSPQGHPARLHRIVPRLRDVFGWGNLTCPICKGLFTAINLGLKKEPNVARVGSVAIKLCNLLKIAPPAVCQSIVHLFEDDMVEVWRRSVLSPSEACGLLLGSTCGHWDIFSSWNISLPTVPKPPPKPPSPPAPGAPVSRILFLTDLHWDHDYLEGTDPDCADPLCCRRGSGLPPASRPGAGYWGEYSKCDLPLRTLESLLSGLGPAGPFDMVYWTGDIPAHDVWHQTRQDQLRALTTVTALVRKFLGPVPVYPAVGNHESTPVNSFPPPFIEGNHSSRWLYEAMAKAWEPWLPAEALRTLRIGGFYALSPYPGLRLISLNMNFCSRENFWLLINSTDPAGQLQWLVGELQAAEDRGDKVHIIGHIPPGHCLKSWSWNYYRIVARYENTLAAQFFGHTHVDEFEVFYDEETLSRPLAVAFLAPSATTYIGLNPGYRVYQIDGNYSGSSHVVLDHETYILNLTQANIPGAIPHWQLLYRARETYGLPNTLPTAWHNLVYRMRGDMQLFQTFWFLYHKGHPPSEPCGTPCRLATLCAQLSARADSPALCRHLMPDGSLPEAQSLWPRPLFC

severe COVID-19 = experiment: Example 2: multicenter observational retrospective cohort study, FIASMA medication use at baseline and intubation or death in patients hospitalized for severe COVID-19; type: in vivo, human; conditions: vs no FIASMA medication
From the text: We included all adults aged 18 years or over who have been hospitalized in these medical centers for severe COVID-19. COVID-19 was ascertained by a positive reverse-transcriptase-polymerase-chain-reaction (RT-PCR) test from analysis of nasopharyngeal or oropharyngeal swab specimens. Severe COVID-19 at admission was defined as having at least one of the following criteria: respiratory rate > 24 breaths/min or < 12 breaths/min, resting peripheral capillary oxygen saturation in ambient air < 90%, temperature > 40° C., systolic blood pressure < 100 mm Hg or high lactate levels. AP-HP clinical Data Warehouse initiatives ensure patient information and informed consent regarding the different approved studies through a transparency portal in accordance with European Regulation on data protection and authorization n°1980120 from National Commission for Information Technology and Civil Liberties (CNIL).
We used data from the AP-HP Health Data Warehouse (‘Entrepôt de Données de Santé (EDS)’). This warehouse contains all available clinical data on all inpatient visits for COVID-19 to any Greater Paris University hospital. The data included patient demographic characteristics, vital signs, laboratory test and RT-PCR test results, medication administration data, medication lists during current and past hospitalizations in AP-HP hospitals, current diagnoses, discharge disposition, and death certificates.
We obtained the following data for each patient at the time of the hospitalization: sex; age, which was categorized into 4 classes based on the OpenSAFELY study results (i.e. 18-50, 51-70, 71-80, 81+); hospital, which was categorized into 4 classes following the administrative clustering of AP-HP hospitals in Paris and its suburbs based on their geographical location (i.e., AP-HP Centre - Paris University, Henri Mondor University Hospitals and at home hospitalization; AP-HP Nord and Hôpitaux Universitaires Paris Seine-Saint-Denis; AP-HP Paris Saclay University; and AP-HP Sorbonne University); obesity, which was defined as having a body mass index higher than 30 kg/m^2 or an International Statistical Classification of Diseases and Related Health Problems (ICD-10) diagnosis code for obesity (E66.0, E66.1, E66.2, E66.8, E66.9); self-reported current smoking status; and any medication prescribed according to compassionate use or as part of a clinical trial (e.g. hydroxychloroquine, azithromycin, remdesivir, tocilizumab, sarilumab, or dexamethasone). To take into account possible confounding by indication bias for FIASMA medication, we recorded whether patients had any current diagnosis, based on ICD-10 diagnosis codes, for neoplasms and diseases of the blood (C00-D89); mental disorders (F01-F99); diseases of the nervous system (G00-G99); cardiovascular disorders (I00-I99); respiratory disorders (J00-J99); digestive disorders (K00-K95); dermatological disorders (L00-L99); diseases of the musculoskeletal system (M00-M99); diseases of the genitourinary system (N00-N99); endocrine disorders (E00-E89); and eye-ear-nose-throat disorders (H00-H95).
All medical notes and prescriptions are computerized in Greater Paris University hospitals. Medications including their dosage, frequency, date, and mode of administration were identified from medication administration data or scanned handwritten medical prescriptions, through two deep learning models based on BERT contextual embeddings, one for the medications and another for their mode of administration. The model was trained on the APmed corpus, a previously annotated dataset for this task. Extracted medications names were then normalized to the Anatomical Therapeutic Chemical (ATC) terminology using approximate string matching.
FIASMA medication use was defined as receiving at least one FIASMA medication at study baseline, i.e. within the first 24 hours of hospital admission, and before the end of the index hospitalization, intubation or death.

Sigma-1 receptors (S1R) = Sigma-1 receptors (S1R) (Homo sapiens, UniProt Q99720); conditions: cited from earlier work
Sequence of Sigma-1 receptors (S1R) (Q99720 whole entry): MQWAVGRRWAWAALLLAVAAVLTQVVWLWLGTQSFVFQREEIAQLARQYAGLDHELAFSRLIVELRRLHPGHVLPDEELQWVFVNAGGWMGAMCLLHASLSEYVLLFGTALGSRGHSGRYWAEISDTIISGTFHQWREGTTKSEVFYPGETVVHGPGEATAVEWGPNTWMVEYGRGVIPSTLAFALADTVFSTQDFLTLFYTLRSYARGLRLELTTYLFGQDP

COVID-19 = conditions: human, in vivo; cited from earlier work
SARS-CoV-2 [2] = conditions: cited from earlier work
[3] = tested on: ceramide-enriched membrane domains; conditions: in vitro; cited from earlier work
SARS-CoV-2 [4] = conditions: in vitro; cited from earlier work

In the case of `CN(C)CCCN1c2ccccc2Sc2ccc(Cl)cc21` [Chlorpromazine, chlorpromazine], the “Anti-inflammatory effect (in words)” value (glia activation) is listed as “anti-inflammatory effect was observed”, the “In vitro inhibition of acid sphingomyelinase (in words)” value (“In vitro inhibition” for short) [1] is listed as “in vitro inhibit acid sphingomyelinase with varying degrees” and the “Association of use at baseline with risk of intubation or death (in words)” value (shortened to “Association of use at baseline”) (severe COVID-19) is listed as “effective preventive and curative treatments for reducing risk of death or intubation”. The “Affinity for Sigma-1 receptors (in words)” value (from here on “Affinity”) (Sigma-1 receptors (S1R)) was “low or no affinity for S1R”.
For `CN(C)C(=O)C(CCN1CCC(O)(c2ccc(Cl)cc2)CC1)(c1ccccc1)c1ccccc1` [Loperamide, loperamide], the “In vitro inhibition” value [1] is given as “in vitro inhibit acid sphingomyelinase with varying degrees” and the “Association of use at baseline” value (severe COVID-19) is given as “effective preventive and curative treatments for reducing risk of death or intubation”.
For `Cc1nc2n(c(=O)c1CCN1CCC(c3noc4cc(F)ccc34)CC1)CCCC2` [risperidone], the “Anti-inflammatory effect (in words)” value (glia activation) is listed as “anti-inflammatory effect was observed”.
With `Clc1ccc2c(c1)CCc1cccnc1C2=C1CCNCC1` [Desloratadine, desloratadine] the “Association of use at baseline” value (severe COVID-19) was “effective preventive and curative treatments for reducing risk of death or intubation”.
In the case of `CNCC[C@H](Oc1cccc2ccccc12)c1cccs1` [Duloxetine, duloxetine], the “In vitro inhibition” value [1] is given as “in vitro inhibit acid sphingomyelinase with varying degrees” and the “Affinity” value (Sigma-1 receptors (S1R)) is given as “low or no affinity for S1R”.
In the case of `CC[C@H]1OC(=O)[C@H](C)[C@@H](O[C@H]2C[C@@](C)(OC)[C@@H](O)[C@H](C)O2)[C@H](C)[C@@H](O[C@@H]2O[C@H](C)C[C@H](N(C)C)[C@H]2O)[C@](C)(O)C[C@@H](C)CN(C)[C@H](C)[C@@H](O)[C@]1(C)O` [azithromycin], the “Effect on mortality in patients hospitalized with COVID-19 (in words)” value (COVID-19) is given as “non-significant effect on mortality”.
For `CNCCCC12CCC(c3ccccc31)c1ccccc12` [maprotiline], the “Infection of Vero cells with SARS-CoV-2 (in words)” value (shortened to “Infection of Vero cells”) (SARS-CoV-2 [2]) is given as “prevented Vero cells from being infected with SARS-CoV-2”, the “Formation of ceramide-enriched membrane domains (in words)” value (shortened to “Formation”) [3] is given as “inhibited ASM and the formation of ceramide-enriched membrane domains” and the “In vitro inhibition” value [1] is given as “inhibited ASM; also recorded: in vitro inhibit acid sphingomyelinase with varying degrees”.
In the case of `CN(C)CCCN1c2ccccc2CCc2ccccc21` [imipramine], the “Infection of Vero cells” value (SARS-CoV-2 [2]) is given as “prevented Vero cells from being infected with SARS-CoV-2”, the “Formation” value [3] is given as “inhibited ASM and the formation of ceramide-enriched membrane domains” and the “In vitro inhibition” value [1] is given as “inhibited ASM; also recorded: in vitro inhibit acid sphingomyelinase with varying degrees”.
In the case of `O=C1CCc2ccc(OCCCCN3CCN(c4cccc(Cl)c4Cl)CC3)cc2N1` [Aripiprazole, aripiprazole], the “In vitro inhibition” value [1] is given as “in vitro inhibit acid sphingomyelinase with varying degrees”, the “Association of use at baseline” value (severe COVID-19) is given as “effective preventive and curative treatments for reducing risk of death or intubation” and the “Affinity” value (Sigma-1 receptors (S1R)) is given as “low or no affinity for S1R”.
For `Fc1ccc([C@@H]2CCNC[C@H]2COc2ccc3c(c2)OCO3)cc1` [Paroxetine, paroxetine], the “In vitro inhibition” value [1] is given as “in vitro inhibit acid sphingomyelinase with varying degrees”, the “Inhibition of viral replication (in words)” value (SARS-CoV-2 [4]) is given as “inhibition of viral replication was not observed” and the “Affinity” value (Sigma-1 receptors (S1R)) is given as “low or no affinity for S1R”.
In the case of `CNCCCN1c2ccccc2CCc2ccccc21` [desipramine], the “Infection of Vero cells” value (SARS-CoV-2 [2]) is given as “prevented Vero cells from being infected with SARS-CoV-2”, the “Formation” value [3] is given as “inhibited ASM and the formation of ceramide-enriched membrane domains” and the “In vitro inhibition” value [1] is given as “inhibited ASM; also recorded: in vitro inhibit acid sphingomyelinase with varying degrees”.
For `CCN(CCO)CCCC(C)Nc1ccnc2cc(Cl)ccc12` (stereo not shown) [hydroxychloroquine], the “Effect on mortality in patients hospitalized with COVID-19 (in words)” value (COVID-19) is listed as “non-significant effect on mortality”.
In the case of `CN[C@H]1CC[C@@H](c2ccc(Cl)c(Cl)c2)c2ccccc21` [Sertraline, sertraline], the “Infection of Vero cells” value (SARS-CoV-2 [2]) is listed as “prevented Vero cells from being infected with SARS-CoV-2”, the “Formation” value [3] is listed as “inhibited ASM and the formation of ceramide-enriched membrane domains” and the “In vitro inhibition” value [1] is listed as “inhibited ASM; also recorded: in vitro inhibit acid sphingomyelinase with varying degrees”. The “Affinity” value (Sigma-1 receptors (S1R)) was “low or no affinity for S1R”.
In the case of `O=C(CCCN1CCC(O)(c2ccc(Cl)cc2)CC1)c1ccc(F)cc1` [haloperidol], the “Anti-inflammatory effect (in words)” value (glia activation) is listed as “anti-inflammatory effect was observed”.
In the case of `COCC(=O)O[C@]1(CCN(C)CCCc2nc3ccccc3[nH]2)CCc2cc(F)ccc2[C@@H]1C(C)C` [mibefradil], the “In vitro inhibition” value [1] is listed as “in vitro inhibit acid sphingomyelinase with varying degrees”.
In the case of `OCCN1CCN(CC/C=C2/c3ccccc3Sc3ccc(C(F)(F)F)cc32)CC1` [Flupenthixol], the “In vitro inhibition” value [1] is listed as “in vitro inhibit acid sphingomyelinase with varying degrees”.
For `CCCCc1oc2ccccc2c1C(=O)c1cc(I)c(OCCN(CC)CC)c(I)c1` [Amiodarone, amiodarone], the “Association of use at baseline” value (severe COVID-19) was “effective preventive and curative treatments for reducing risk of death or intubation”.
For `Fc1ccc(C(c2ccc(F)cc2)N2CCN(C/C=C/c3ccccc3)CC2)cc1` [flunarizine], the “In vitro inhibition” value [1] is listed as “in vitro inhibit acid sphingomyelinase with varying degrees”.
In the case of `CSc1ccc2c(c1)N(CCC1CCCCN1C)c1ccccc1S2` (stereo not shown) [Thioridazin], the “In vitro inhibition” value [1] is given as “in vitro inhibit acid sphingomyelinase with varying degrees”.
In the case of `OCCN1CCN(CCCN2c3ccccc3Sc3ccc(C(F)(F)F)cc32)CC1` [Fluphenazine], the “In vitro inhibition” value [1] is listed as “in vitro inhibit acid sphingomyelinase with varying degrees”.
For `CN(C)CCCN1c2ccccc2Sc2ccc(C(F)(F)F)cc21` [Triflupromazine], the “In vitro inhibition” value [1] is listed as “in vitro inhibit acid sphingomyelinase with varying degrees”.
In the case of `C[C@H]1[C@H]2CC[C@H]3[C@@H]4CC=C5C[C@@H](N(C)C)CC[C@]5(C)[C@H]4CC[C@]23CN1C` [conessine], the “In vitro inhibition” value [1] is listed as “in vitro inhibit acid sphingomyelinase with varying degrees”.
